The nature of series [1]: Plasma protein binding, rat. Type of series: in vitro ADME. Particulars: pH 7.4, read-out: PPB % rat (converted). Put shortly:
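Equilibrium dialysis of 5 μM compound (0.5% DMSO) in plasma against PBS pH 7.4 for 4 h at 37 °C with shaking. Both chambers were matrix-matched, protein-precipitated with acetonitrile and quantified by LC–MS/MS. The summed peak areas of both chambers were taken as 100% compound.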

Series [2] can be described thus: Plasma protein binding, human. Type of series: in vitro ADME. The following applies: for fraction unbound at 4 h, 5 μM: human, pH 7.4, human plasma, read-out: PPB % human (converted).
A short description of series [3]: Hepatocyte stability, rat. Type of series: in vitro ADME. Particulars: for CLint scaled at 1 μM: read-out: Hep CLint,u rat (converted). How it is done:
(§1) The hepatocyte stability assay was performed by incubation of test compound at 1 μM, 0.03% DMSO in modified Krebs–Henseleit buffer with suspension of pooled cryopreserved hepatocytes (BioIVT, Hicksville, NY, USA) from mouse, rat, dog, or human (BioIVT, Hicksville, NY, USA) at 0.5 million viable hepatocytes/mL. Before adding the hepatocytes (time zero) and after 10, 20, 45, 90, 120, and 180 min of incubation (n = 2) at 37 °C while gently shaking, the reaction was stopped and proteins were precipitated with an excess of acetonitrile containing an internal standard. The samples were mixed, centrifuged, and filtered, and the supernatant was analyzed by liquid chromatography–mass spectrometry/mass spectrometry (LC–MS/MS). The instrument responses (peak areas/IS peak areas) were referenced to the zero-time point samples (considered as 100%) in order to determine the percentage of compound remaining.

Series [4] concerns the target T1, ΔF508 CFTR (Homo sapiens, UniProt P13569, DEL508-508).
T1 construct: host or cells: CFBE41o- TetON cells, expression induced with doxycycline
As to the kind of experiment: TECC (transepithelial clamp circuit) in primary CF-derived HBE cells. Type of series: cell-based. The following applies: for Emax / EC50: primary ΔF508 homozygous HBE cells, 24 h incubation, with GLPG2222; for Emax: read-out: TECC HBE with GLPG2222 % max activation; for EC50: read-out: TECC HBE with GLPG2222 EC50.

Series [5] is described as follows: Plasma protein binding, dog. Type of series: in vitro ADME. Particulars: for fraction unbound at 4 h, 5 μM: dog, pH 7.4, dog plasma, read-out: PPB % dog (converted). As to the method:
Plasma protein binding was determined by equilibrium dialysis using the Pierce Red Device plate with inserts (ThermoScientific). Test compound at 5 μM (0.5% DMSO) spiked in freshly thawed human, rat, mouse, or dog plasma (Bioreclamation INC, Westbury, NY, USA) was dialyzed against phosphate-buffered saline (PBS, pH 7.4) at 37 °C under shaking for 4 h. Aliquots were taken from each side of the well, and matrix matched. Proteins were precipitated with an excess of acetonitrile, samples were mixed and centrifuged, and the supernatant was analyzed by liquid chromatography–mass spectrometry/mass spectrometry (LC–MS/MS). Addition of compound peak areas in the buffer chamber and the plasma chamber was considered to be 100% compound.

In series [6] the test system is CYP3A4. As to the kind of experiment: CYP3A4 induction (mRNA) in human hepatocytes. Type of series: in vitro ADME. Particulars: for CYP (3A4) mRNA induction, result in words: compared with positive control rifampicin. As to the method: Cryopreserved human hepatocytes from a single donor were seeded at 0.1 × 10^6 cells/well. The next day, cells were dosed with test compound in assay medium (final test compound concentration 10 μM; final DMSO concentration 0.1%). Positive control inducer, rifampicin, for CYP3A4, was incubated alongside the test compound. Negative control wells were included where the test compound is replaced by vehicle solvent (0.1% DMSO in assay medium). Each test or control compound was dosed in triplicate at a single concentration (10 μM). The cells were exposed to the solutions for 72 h with fresh solution added every 24 h. For mRNA assessment, all media was removed from each of the wells, and the cells were washed once. The cells were lysed, and total RNA was then isolated from the hepatocyte lysates. Reverse transcription was performed, and quantitative PCR analysis was performed on the resulting cDNA, using gene-specific primer probe sets for CYP3A4 target cDNA and endogenous control. Samples were analyzed using an ABI 7900 HT real time PCR system. For mRNA assessment, relative fold mRNA expression was determined based on the threshold cycle (CT) data of target gene relative to endogenous control for each reaction and normalized to negative control using the 2-ΔΔCT method. Data were expressed as fold activation relative to the vehicle control and, as a percent, to the 10 μM rifampicin using the following formula: % of positive control = ((fold increase of the cpd relative to vehicle control – 1)/(fold increase of the rifampicin at 10 μM – 1)) × 100.

Series [7] is described as follows: Hepatocyte stability, human. Type of series: in vitro ADME. Particulars: for CLint scaled at 1 μM: read-out: Hep CLint,u human. As to the method:
as §1

A short description of series [8]: Hepatocyte stability, dog. Type of series: in vitro ADME. Particulars: for CLint scaled at 1 μM: read-out: Hep CLint,u dog (converted). As to the method:
as §1

Where [9] appears, read: pooled cryopreserved hepatocytes in suspension.

This is an account of results in PMC11017246, “Discovery of GLPG2737, a Potent Type 2 Corrector of CFTR for the Treatment of Cystic Fibrosis in Combination with a Potentiator and a Type 1 Co-corrector” (Journal of Medicinal Chemistry, 2024).

By EC50 is commonly meant the concentration at which the effect is half-maximal.

SMILES strings stand for the structures. Values joined by “and” are separate entries in the source; they are usually repeats but may differ in a detail not shown here. Equal values may be shown once.

T1 sequence (P13569 with tags, fused parts or gaps DEL508-508): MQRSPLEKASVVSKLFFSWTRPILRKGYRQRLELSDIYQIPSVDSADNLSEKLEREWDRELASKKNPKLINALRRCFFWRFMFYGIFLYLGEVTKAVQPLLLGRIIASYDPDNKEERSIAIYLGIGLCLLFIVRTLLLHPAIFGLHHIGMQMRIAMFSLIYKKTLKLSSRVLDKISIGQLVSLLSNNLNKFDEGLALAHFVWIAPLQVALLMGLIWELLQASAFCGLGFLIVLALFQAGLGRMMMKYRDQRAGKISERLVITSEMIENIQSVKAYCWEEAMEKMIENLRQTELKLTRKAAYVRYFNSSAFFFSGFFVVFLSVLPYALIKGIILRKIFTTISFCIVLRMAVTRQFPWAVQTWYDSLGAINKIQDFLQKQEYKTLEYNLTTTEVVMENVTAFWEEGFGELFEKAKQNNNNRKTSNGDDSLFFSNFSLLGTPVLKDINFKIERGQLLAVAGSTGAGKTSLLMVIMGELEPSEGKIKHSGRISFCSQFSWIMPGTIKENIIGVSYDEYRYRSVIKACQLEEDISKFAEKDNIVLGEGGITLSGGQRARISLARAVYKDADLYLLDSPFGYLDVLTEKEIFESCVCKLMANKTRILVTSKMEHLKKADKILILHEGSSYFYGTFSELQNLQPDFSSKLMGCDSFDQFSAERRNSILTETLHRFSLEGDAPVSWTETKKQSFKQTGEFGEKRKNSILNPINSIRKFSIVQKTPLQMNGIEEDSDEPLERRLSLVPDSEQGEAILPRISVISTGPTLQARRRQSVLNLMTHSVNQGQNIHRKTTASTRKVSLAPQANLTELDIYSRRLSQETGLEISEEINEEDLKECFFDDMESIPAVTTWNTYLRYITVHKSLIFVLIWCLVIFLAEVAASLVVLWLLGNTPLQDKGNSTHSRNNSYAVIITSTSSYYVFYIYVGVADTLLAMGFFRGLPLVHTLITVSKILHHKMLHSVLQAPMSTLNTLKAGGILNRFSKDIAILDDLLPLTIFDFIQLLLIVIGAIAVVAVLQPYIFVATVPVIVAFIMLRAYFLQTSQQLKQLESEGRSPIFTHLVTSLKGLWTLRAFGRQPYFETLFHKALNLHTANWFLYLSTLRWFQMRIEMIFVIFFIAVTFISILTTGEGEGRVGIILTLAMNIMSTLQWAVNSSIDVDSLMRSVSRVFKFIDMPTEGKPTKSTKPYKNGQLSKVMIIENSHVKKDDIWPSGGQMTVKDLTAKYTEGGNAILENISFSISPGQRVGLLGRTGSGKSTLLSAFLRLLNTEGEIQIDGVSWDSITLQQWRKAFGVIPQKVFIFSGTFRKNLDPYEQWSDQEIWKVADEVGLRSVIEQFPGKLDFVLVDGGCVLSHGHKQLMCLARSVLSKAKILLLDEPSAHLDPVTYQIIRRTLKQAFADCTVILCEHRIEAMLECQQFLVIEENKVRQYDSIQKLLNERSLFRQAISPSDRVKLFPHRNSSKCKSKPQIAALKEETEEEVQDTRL

Take `CN(C)S(=O)(=O)NC(=O)c1cc(N2CCC(N3CCOCC3)CC2)c2c(C3CCC3)nn(-c3ccc(F)cc3)c2n1` [Compound 51]: the figures for the fraction unbound at 4 h, 5 μM in series [1], in series [2] (plasma) and in series [5] (plasma) were 0.015, 0.02 and 0.01, respectively. Further, the PPB % human in series [2] (human plasma) was 99% and 98.7%. Besides, the CLint scaled at 1 μM in series [3] (setting [9]) is 49 mL/min/kg; in series [7] (setting [9]), < 11 mL/min/kg; in series [8] (pooled cryopreserved hepatocytes in suspension, dog hepatocytes), 31.7 mL/min/kg. In series [4], the Emax came out at 371%. For the same compound, in series [4], the half-maximal effective concentration (EC50) is 67 nM. In series [5] (dog plasma), the PPB % dog is reported as 98,7%. Further, the “CYP induction @10 μM (mRNA) % rifampicin” value in series [6] (data generated by AbbVie team) is reported as 45%; in series [6] (data generated by Galapagos), 24%. In series [6], the “CYP (3A4) mRNA induction, result in words” value was “demonstrated CYP mRNA induction”.

In the case of `COC1CCN(C2CCN(c3cc(C(=O)NS(=O)(=O)N(C)C)nc4c3c(C3CCC3)nn4-c3ccc(F)cc3)CC2)CC1` [Compound 52, 3-Cyclobutyl-N-(N,N-dimethylsulfamoyl)-1-(4-fluorophenyl)-4-(4-methoxy-[1,4′-bipiperidin]-1′-yl)-1H-pyrazolo[3,4-b]pyridine-6-carboxamide], the fraction unbound at 4 h, 5 μM in series [1] (rat) was 0.016; in series [2] (human plasma), 0.02; in series [5] (dog plasma), 0.025. The “Hepatocyte stability: %LBF rat” value in series [3] (rat hepatocytes) was 30 %LBF. Also, the “Hepatocyte stability: predicted hepCl rat” value in series [3] (rat hepatocytes, 1 µM) was 25.5 mL/min/kg. For the same compound, the CLint scaled at 1 μM is 66.2 mL/min/kg in series [3] (rat hepatocytes); < 12.8 mL/min/kg in series [7] (human hepatocytes); < 24.8 mL/min/kg in series [8] (dog, pooled cryopreserved dog hepatocytes in suspension). Besides, the “increase in F508del CFTR activity” value in series [4] (addition to the combination of potentiator GLPG1837 and C1 corrector 4) is given as 8 fold. Further, the Emax in series [4] was 467%. Further, in series [4], the EC50 stood at 47 nM. For the same compound, the entries for the “CYP induction @10 μM (mRNA) % rifampicin” value in series [6] (data generated by AbbVie team) and in series [6] (data generated by Galapagos) were 4% and 6%, respectively. Further, the “CYP (3A4) mRNA induction, result in words” value in series [6] is given as “devoid of any CYP mRNA induction liability”. Besides, the “Hepatocyte stability: %LBF human” value in series [7] (human hepatocytes) was 22 %LBF. Also, the “Hepatocyte stability: predicted hepCl human” value in series [7] (human hepatocytes, 1 µM) is < 4.67 mL/min/kg. Further, in series [8] (dog hepatocytes), the “Hepatocyte stability: %LBF dog” value turned out to be 14 %LBF. Besides, the “Hepatocyte stability: predicted hepCl dog” value in series [8] (dog hepatocytes, 1 µM) was < 5.83 mL/min/kg.
